Results as given in patent US20230365616A1, “CHOLESTANE DERIVATIVES, PREPARATIONS CONTAINING THESE DERIVATIVES AND USE THEREOF” (UNIVERZITA PALACKEHO V OLOMOUCI, priority 2020, published 2023).

Assays:
[1] = system: neuron-like SH-SY5Y cells; assay: Glutamate-induced oxidative stress, superoxide radical formation by dihydroethidium staining; format: cell-based, human; settings: 4 hour co-treatment with 160 mM Glu, percentages of 160 mM Glu control, mean of three independent experiments
Experimental: Similarly as shown in previous assay, cells grew on 96 multiwell plates at density 20000 cells per well underwent differentiation and treatment procedure for glutamate model. After 4 hour co-treatment with glutamate superoxide radical's formation as marker of oxidative stress was quantified by dihydroethidium according to Kim et al. 2017, J. Med. Food, 20, 140-151 with modifications. Briefly, neuron-like SH-SYSY cells were centrifuged at 500 g for 5 minutes and 30 seconds, then media were replaced by 10 μM DHE PBS solution and kept at room temperature for 30 minutes. After 30 minutes, DHE was read at 500 nm/580 nm (excitation/emission) by Infinite M200 Pro (Tecan) microplate reader. DHE is cell permeable dye which is selective toward superoxide radical detection. Overall oxidative stress achieved by 160 mM Glu was consider as 100% so that the reduction in oxidative stress (OS reducing effect) was observed. As shown in Table 6 and FIG. 2, 160 mM Glu induced 2.6 fold increase in superoxide radical's formation.

[2] = system: human neuron-like SH-SY5Y cells; assay: Neuroprotective effect on glutamate-induced oxidative damage, cell death by propidium iodide staining; format: cell-based; settings: for Neuroprotective effect (% of control): co-treatment with 160 mM Glu for 24 h, difference between 160 mM Glu and co-treatment group means; for Neuroprotective effect compared with positive controls (R-LA, DFO): 160 mM Glu, 24 h
Experimental: Similarly, to the previous test the assay was performed in 96-well microplates with 20000 cells per well. Day after the seeding of cells, SH-SYSY underwent all-trans retinoic acid (ATRA)-differentiation for 48 h (ATRA 10 μM). […] […] After 24 h the cell death was quantified by propidium iodide staining according to literature (Stone et al. BMC Cell Biol. 2003, 4, 1) with modifications. In general, PI staining is associated with damaged cell membrane or presence of dying cells (Stone et al. BMC Cell Biol. 2003, 4, 1). Due to the loss of adherence, damaged or death cells were stained by PI solution directly in media at 1.5 μM final concentration and incubated at room temperature for 15-25 minutes at room temperature. PI stained cells were quantified at 535/617 nm (excitation/emission) by Infinite M200 Pro (Tecan) microplate reader. Cell death generated by 160 mM Glu was consider as 100% of cell death so that reduction in cell death (neuroprotective effect) was observed.

[3] = system: SH-SY5Y human neuroblastoma cell line (neuron-like phenotype); assay: Calcein AM viability test on ATRA-differentiated neuron-like SH-SY5Y cells; format: cell-based; settings: 24 hours of treatment, mean of two independent experiments
Experimental: (§1) The SH-SY5Y human neuroblastoma cell line obtained purchased from ECACC (The European Collection of Authenticated Cell Cultures) was cultivated in Dulbecco's modified Eagle's Medium and Ham's F12 Nutrient Mixture (DMEM:F-12, 1:1), supplemented with 10% fetal bovine serum (FBS) and 1% penicillin and streptomycin at 37° C. in a humidified atmosphere 5% CO2, 95% air in passage limit up to ECACC+20. The assay was performed in 96-well microplate with 7000 SH-SY5Y cells per well. Next day, SH-SY5Y underwent all-trans retinoic acid (ATRA)-differentiation for 48 h (ATRA 10 μM). After 48 h, old DMEM/F12 media was removed by fresh media containing tested compounds at 0.1, 1 and 10 μM concentrations for 24 h. The tested compounds were dissolved in DMSO were added into the medium. The maximum concentration of DMSO in media was kept below 0.1% (v/v). The cell viability was measured by Calcein AM (1 mg/ml ThermoFisher) viability assay. Solution of Calcein AM in PBS (0.75 μM) was pipetted to cells and incubated for 50 minutes. After that the fluorescence was measured at 488/517 nm (excitation/emission) using microplate reader Infinite M200 (TECAN). Calcein AM assay is based on the dye-intracellular-esterase cleavage of non-fluorescent dye (Calcein AM) by living cells to fluorescent dye (Calcein), while dyeing cells that lose such ability. The values in Table 4 show % of viability, relative to control of all tested compounds. The control (medium with DMSO, <0.1% (v/v)) was postulated as 100% viability (see the first line of the table).

[4] = as above; format: cell-based; settings: human, ATRA-differentiated neuron-like SH-SY5Y neuroblastoma cells, 24 hours of treatment, mean of two independent experiments, read-out: Viability (% of DMSO control)
[5] = as above; format: cell-based, human; settings: human, ATRA-differentiated neuron-like SH-SY5Y neuroblastoma cells; 1 μM, 24 hours of treatment, mean of two independent experiments; read-out: Viability (% of DMSO control)
Experimental: as §1

Row | SMILES | Superoxide radical formation (% of 160 mM glutamate control) ([1]; 1 μM) [%] | Superoxide radical formation (% of 160 mM glutamate control) ([1]; 10 μM) [%] | Neuroprotective effect (% of control) ([2]; 10 μM) | Viability (% of DMSO control) ([3]; 0.1 μM) | Viability (% of DMSO control) ([3]; 1 μM) | Viability (% of DMSO control) ([3]; 10 μM) | Neuroprotective effect (% of control) ([2]; 1 μM) | Neuroprotective effect compared with positive controls (R-LA, DFO) ([2]; 10 μM) | Superoxide radical formation (% of 160 mM glutamate control) ([1]; 5 μM) [%] | Superoxide radical formation (% of 160 mM glutamate control) ([1]; 50 μM) [%] | Neuroprotective effect (% of control) ([2]; 50 μM) | viability at 24 h, 5 µM ([4]; 5 μM) [%] | viability at 24 h, 50 µM ([4]; 50 μM) [%] | Superoxide radical formation (% of 160 mM glutamate control) ([1]; 100 μM) [%] | Neuroprotective effect (% of control) ([2]; 100 μM) | viability at 24 h, 1 µM [5] [%]
1 | CC(C)CCC[C@@H](C)[C@H]1CC[C@H]2[C@@H]3CC(=O)[C@H]4C[C@H](O)[C@H](O)C[C@]4(C)[C@H]3CC[C@]12C [Compound 111] | 89.17 | 80.21 | 26.52 % of control | 106.90 % of DMSO control | 107.80 % of DMSO control | 109.90 % of DMSO control |  |  |  |  |  |  |  |  |  | 
2 | CC[C@@H](C)[C@H]1CC[C@H]2[C@@H]3CC(=O)[C@H]4C[C@H](O)[C@H](O)C[C@]4(C)[C@H]3CC[C@]12C [Compound 6] | 85.36 | 80.19 | 33.70 % of control | 101.30 % of DMSO control | 104.80 % of DMSO control | 122.10 % of DMSO control | 15.00 % of control | double neuroprotective effect than R-LA |  |  |  |  |  |  |  | 
3 | CCCC[C@@H](C)[C@H]1CC[C@H]2[C@@H]3CC(=O)[C@H]4C[C@H](O)[C@H](O)C[C@]4(C)[C@H]3CC[C@]12C [Compound 30] | 84.54 | 81.08 | 23.17 % of control | 99.41 % of DMSO control | 102.30 % of DMSO control | 104.70 % of DMSO control |  |  |  |  |  |  |  |  |  | 
4 | CCC[C@@H](C)[C@H]1CC[C@H]2[C@@H]3CC(=O)[C@H]4C[C@H](O)[C@H](O)C[C@]4(C)[C@H]3CC[C@]12C [Compound 15] | 98.27 | 85.61 | 30.08 % of control | 98.20 % of DMSO control | 106.40 % of DMSO control | 120.60 % of DMSO control |  | double neuroprotective effect than R-LA |  |  |  |  |  |  |  | 
5 | O=C(O)CCCC[C@@H]1CCSS1 [R-LA, R-lipoic acid, reference compound] |  |  |  |  |  |  |  |  | 86.72 | 83.91 | 13.49 % of control |  |  |  |  | 
6 | CCCCC[C@@H](C)[C@H]1CC[C@H]2[C@@H]3CC(=O)[C@H]4C[C@H](O)[C@H](O)C[C@]4(C)[C@H]3CC[C@]12C [Compound 57] | 93.34 | 83.99 | 24.88 % of control | 105.90 % of DMSO control | 108.90 % of DMSO control | 117.10 % of DMSO control | 15.99 % of control |  |  |  |  |  |  |  |  | 
7 | CC(=O)N(O)CCCCCNC(=O)CCC(=O)N(O)CCCCCNC(=O)CCC(=O)N(O)CCCCCN [DFO, deferoxamine, reference compound] |  | 87.06 | 19.94 % of control |  |  |  |  |  |  |  |  | 106 | 110 | 92.61 | 23.55 % of control | 106
